# Data from patent US10980765B2, “Isothiocyanatostilbenes as a novel method and product for treating cancer” (BOARD OF SUPERVISORS OF LOUISIANA STATE UNIVERSITY AND …, priority 2015, dated 2021).
# What was measured:
# [1] = tested on: interaction of human immunodeficiency virus type-1 (HIV-1) with CD4 T-cell receptors; conditions: cited from earlier work
# F0F1-ATP synthase = conditions: cited from earlier work
# DU145 cells = assay: Scattering assay; type: cell-based; conditions: 4 μM DIDS or 25 μM H2DIDS
# Procedure: Cells were fixed and stained for actin. Representative images are shown. […] Data are shown as mean±S.E.M.; n=3.
# Cells were fixed and stained for actin. Representative images are shown.
# Scattering assay: DU145 cells were grown to ˜50% confluency. […] Cells were fixed with 4% paraformaldehyde and stained with Oregon Green 488 phalloidin (Invitrogen; Carlsbad, Calif.). Images were acquired on an Eclipse TE300 inverted microscope (Nikon; Tokyo, Japan) with NIS Elements version 4.13.04 software. Presented images were taken using a 10× objective.
# EGFR = target: T1, EGFR (Homo sapiens, UniProt P00533); assay: Western blot of EGFR activation by EGF in DU145 cells; type: cell-based; conditions: 4 μM DIDS or 25 μM H2DIDS; DU145, 100 ng/ml EGF 20 min
# T1 construct: endogenous in cells; host or cells: DU145
# T1 sequence (P00533 25-1210): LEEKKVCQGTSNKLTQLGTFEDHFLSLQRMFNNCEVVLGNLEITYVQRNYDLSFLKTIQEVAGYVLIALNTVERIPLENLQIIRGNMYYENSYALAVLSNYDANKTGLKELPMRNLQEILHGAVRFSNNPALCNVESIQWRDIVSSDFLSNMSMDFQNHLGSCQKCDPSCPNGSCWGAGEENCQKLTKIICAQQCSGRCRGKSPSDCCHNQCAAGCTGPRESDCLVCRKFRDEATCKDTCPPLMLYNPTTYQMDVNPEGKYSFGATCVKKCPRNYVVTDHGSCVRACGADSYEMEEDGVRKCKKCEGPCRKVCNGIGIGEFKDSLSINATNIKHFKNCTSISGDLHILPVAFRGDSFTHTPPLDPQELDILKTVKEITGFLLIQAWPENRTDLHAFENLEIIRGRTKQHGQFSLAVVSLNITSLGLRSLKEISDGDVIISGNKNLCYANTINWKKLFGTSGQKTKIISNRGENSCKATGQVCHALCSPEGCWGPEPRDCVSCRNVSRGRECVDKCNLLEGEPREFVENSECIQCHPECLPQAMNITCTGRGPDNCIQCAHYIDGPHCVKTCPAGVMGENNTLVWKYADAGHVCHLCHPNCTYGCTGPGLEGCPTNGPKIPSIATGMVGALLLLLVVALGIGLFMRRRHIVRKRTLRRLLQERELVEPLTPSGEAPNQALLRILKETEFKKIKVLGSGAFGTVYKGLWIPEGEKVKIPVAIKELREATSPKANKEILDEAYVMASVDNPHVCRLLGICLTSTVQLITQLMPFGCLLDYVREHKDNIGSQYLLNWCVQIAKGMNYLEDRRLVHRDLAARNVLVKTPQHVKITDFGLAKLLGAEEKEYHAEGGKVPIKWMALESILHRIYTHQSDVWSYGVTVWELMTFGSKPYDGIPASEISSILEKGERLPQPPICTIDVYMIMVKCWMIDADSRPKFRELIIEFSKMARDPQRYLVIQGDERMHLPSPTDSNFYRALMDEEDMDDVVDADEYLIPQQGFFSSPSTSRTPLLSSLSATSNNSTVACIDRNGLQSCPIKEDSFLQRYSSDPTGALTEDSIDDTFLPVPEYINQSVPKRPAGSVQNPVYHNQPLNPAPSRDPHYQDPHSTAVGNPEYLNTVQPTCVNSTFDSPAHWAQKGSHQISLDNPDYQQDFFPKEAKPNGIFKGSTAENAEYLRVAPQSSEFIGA
# Procedure: (§1) Western blot analysis: Cells were grown to ˜70% confluency prior to treatment. Cells were serum-starved in serum-free media for 30 minutes prior to treatment in complete media or serum-free media for the indicated times. Cell lysates were collected in Laemmli (125 mM Tris, 4% SDS, 0.01% bromophenol blue, 30% sucrose) containing 0.5% β-mercaptoethanol and boiled ˜8 minutes. Primary antibodies include: phospho-c-Met (Y1234/1235), phospho-Akt (S473), pEGFR […], pIGF-IRβ (Y1135/1136) (Cell Signaling Technology; Beverly, Mass.); α-actin (Sigma-Aldrich), c-Met (C-28) (Life Technologies). Secondary antibodies include: horseradish peroxidase-conjugated anti-rabbit and anti-mouse (GE Healthcare; Pittsburgh, Pa.). ECL 2 was used for chemiluminescent detection (Thermo Scientific; Rockford, Ill.). Densitometry was calculated using ImageJ (NIH).
# c-Met [2] = target: T2, c-Met (Homo sapiens, UniProt P08581); assay: Western blot of c-Met activation (phospho-c-Met) by HGF in cancer cell lines; type: cell-based; design: endogenous in cells; host or cells: DU145, PC3, MDA-MB-231, HCC1806
# T2 sequence (P08581 25-1390): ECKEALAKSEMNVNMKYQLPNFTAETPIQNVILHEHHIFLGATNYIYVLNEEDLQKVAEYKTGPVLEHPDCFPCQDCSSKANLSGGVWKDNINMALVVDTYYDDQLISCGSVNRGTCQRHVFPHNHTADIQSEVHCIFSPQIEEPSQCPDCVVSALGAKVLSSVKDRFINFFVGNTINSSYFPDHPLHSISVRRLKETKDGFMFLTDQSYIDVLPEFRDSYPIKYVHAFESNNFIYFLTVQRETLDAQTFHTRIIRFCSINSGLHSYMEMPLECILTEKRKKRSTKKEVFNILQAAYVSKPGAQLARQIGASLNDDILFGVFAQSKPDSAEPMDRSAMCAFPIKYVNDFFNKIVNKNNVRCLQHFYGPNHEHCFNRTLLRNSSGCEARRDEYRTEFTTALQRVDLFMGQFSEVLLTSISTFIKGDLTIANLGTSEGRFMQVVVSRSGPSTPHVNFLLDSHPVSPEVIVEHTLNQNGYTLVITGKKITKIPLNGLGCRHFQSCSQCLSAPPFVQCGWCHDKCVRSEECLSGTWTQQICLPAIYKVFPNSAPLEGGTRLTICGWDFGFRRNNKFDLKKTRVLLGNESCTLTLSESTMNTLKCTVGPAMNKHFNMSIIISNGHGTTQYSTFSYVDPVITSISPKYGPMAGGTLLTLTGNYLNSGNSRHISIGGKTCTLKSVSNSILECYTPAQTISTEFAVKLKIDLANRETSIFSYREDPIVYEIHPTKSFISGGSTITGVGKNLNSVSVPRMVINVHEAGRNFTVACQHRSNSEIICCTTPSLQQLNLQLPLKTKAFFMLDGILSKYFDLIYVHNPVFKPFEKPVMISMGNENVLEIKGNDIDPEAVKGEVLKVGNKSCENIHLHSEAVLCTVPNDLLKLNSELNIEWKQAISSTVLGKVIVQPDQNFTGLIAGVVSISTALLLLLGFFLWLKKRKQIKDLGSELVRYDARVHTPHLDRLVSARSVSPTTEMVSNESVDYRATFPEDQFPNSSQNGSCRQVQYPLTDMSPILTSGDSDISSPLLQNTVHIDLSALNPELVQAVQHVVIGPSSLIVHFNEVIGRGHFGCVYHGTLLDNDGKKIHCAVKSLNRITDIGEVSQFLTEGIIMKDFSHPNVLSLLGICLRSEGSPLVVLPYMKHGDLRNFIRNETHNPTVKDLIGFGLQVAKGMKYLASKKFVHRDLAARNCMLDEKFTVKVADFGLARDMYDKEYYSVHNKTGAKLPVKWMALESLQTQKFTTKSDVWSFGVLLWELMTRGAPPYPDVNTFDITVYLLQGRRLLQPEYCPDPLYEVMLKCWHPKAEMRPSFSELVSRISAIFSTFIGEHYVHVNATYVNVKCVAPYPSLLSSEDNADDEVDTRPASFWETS
# Procedure: (§2) Western blot was used to analyze pMet expression. […] Western blot was used to analyze the indicated proteins.
# (§3) Western blot was used to analyze the indicated proteins.
# as §3, §1
# c-Met M1250T (M1268T) = c-Met M1250T (M1268T) (Homo sapiens, UniProt P08581, M1250T); assay: Phosphorylation inhibition assay (Z′-LYTE Kinase Assay-Tyr6 Peptide), mutant c-Met; type: biochemical; conditions: cell-free kinase assay, 200 μM ATP
# Chain of c-Met M1250T (M1268T) (P08581 956-1390 M1250T limits assumed): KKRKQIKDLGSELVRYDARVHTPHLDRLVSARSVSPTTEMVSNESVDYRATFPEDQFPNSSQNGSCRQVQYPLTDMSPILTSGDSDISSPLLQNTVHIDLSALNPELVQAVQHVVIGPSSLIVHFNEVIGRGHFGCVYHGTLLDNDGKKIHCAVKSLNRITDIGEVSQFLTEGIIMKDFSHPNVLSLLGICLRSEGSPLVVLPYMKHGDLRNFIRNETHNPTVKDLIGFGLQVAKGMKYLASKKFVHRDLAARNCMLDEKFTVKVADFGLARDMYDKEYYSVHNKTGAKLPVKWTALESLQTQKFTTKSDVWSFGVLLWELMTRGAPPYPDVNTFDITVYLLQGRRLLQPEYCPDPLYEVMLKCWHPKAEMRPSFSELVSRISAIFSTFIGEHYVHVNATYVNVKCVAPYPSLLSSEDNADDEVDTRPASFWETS
# Procedure: as §2
# Phosphorylation inhibition assay: Z′-LYTE™ Kinase Assay-Tyr6 Peptide kit (Invitrogen) was used to assess the ability of tested compounds to inhibit c-Met phosphorylation. […] After 1 hour incubation at room temperature, 10 μl development solution containing site-specific protease was added to each well. Incubation was continued for 1 hour. The reaction was then stopped, and the fluorescent signal ratio of 445 nm (coumarin)/520 nm (fluorescein) was determined on a plate reader (BioTek FLx800™), which reflects the peptide substrate cleavage status and/or the kinase inhibitory activity in the reaction. […] The IC50 value for each compound was calculated by nonlinear regression of log concentration versus % c-Met phosphorylation ±S.E.M., implemented in GraphPad Prism version 5.0 (GraphPad Software, CA, USA).
# c-Met [3] = target: T2, c-Met; assay: Western blot of pMet in c-Met amplified H1993 lung cancer cells without HGF; type: cell-based; design: endogenous in cells; conditions: 5 μM compound; no HGF, constitutive c-Met activation
# Procedure: as §2
# H1993 cells have c-Met amplification such that they have high levels of pMet, even in the absence of HGF, due to constitutive c-Met dimerization and autophosphorylation.
# as §1
# IGFR = target: T3, IGFR (Homo sapiens, UniProt P08069); assay: Western blot of IGFR activation by IGF in DU145 cells; type: cell-based; conditions: 4 μM DIDS or 25 μM H2DIDS; DU145, 100 ng/ml IGF 20 min
# T3 construct: endogenous in cells; host or cells: DU145
# T3 sequence (P08069 31-1367): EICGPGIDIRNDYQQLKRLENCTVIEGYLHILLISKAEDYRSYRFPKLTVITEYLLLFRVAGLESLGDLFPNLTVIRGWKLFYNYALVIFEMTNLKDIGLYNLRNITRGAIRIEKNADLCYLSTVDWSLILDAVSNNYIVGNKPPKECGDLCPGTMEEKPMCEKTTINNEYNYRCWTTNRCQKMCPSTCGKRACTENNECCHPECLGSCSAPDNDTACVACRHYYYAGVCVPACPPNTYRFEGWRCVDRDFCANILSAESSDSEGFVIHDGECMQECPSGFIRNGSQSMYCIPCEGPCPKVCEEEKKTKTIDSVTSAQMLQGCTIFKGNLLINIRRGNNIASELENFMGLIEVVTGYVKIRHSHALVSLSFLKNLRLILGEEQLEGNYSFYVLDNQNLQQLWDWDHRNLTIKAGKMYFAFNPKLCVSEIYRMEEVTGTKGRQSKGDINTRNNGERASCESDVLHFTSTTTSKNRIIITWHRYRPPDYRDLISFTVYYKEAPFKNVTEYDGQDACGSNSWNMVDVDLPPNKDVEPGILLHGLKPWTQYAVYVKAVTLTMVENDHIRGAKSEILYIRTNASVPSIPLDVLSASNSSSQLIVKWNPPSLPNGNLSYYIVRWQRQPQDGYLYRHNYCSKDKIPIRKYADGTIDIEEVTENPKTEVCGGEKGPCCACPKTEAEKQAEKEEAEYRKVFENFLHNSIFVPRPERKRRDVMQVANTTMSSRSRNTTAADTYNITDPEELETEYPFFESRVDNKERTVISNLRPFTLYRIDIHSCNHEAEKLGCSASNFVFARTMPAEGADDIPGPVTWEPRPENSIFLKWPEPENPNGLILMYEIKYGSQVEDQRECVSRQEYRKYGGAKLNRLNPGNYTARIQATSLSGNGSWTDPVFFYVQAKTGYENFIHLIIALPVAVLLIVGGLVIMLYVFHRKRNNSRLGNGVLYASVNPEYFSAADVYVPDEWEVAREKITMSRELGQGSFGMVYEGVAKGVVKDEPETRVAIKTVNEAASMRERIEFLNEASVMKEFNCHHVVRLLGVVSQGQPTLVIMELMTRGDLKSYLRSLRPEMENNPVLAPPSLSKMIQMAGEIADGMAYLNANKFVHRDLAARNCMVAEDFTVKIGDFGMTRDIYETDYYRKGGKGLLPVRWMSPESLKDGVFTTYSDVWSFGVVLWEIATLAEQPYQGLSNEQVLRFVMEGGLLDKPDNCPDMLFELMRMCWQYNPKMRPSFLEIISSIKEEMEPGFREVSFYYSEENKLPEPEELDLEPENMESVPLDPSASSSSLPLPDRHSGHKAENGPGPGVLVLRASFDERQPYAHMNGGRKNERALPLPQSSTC
# Procedure: as §1
structure (smiles),measurement,setting,value
"O=S(=O)(O)c1cc(N=C=S)ccc1C=Cc1ccc(N=C=S)cc1S(=O)(=O)O [DIDS, 4,4′-Diisothiocyanatostilbene-2,2′-disulfonic acid]",concentration preventing interaction of HIV-1 with CD4 T-cell receptors,[1],low micromolar concentrations
same,concentration reducing activity of F0F1-ATP synthase,F0F1-ATP synthase,low micromolar concentrations
same,HGF-induced cell scattering,DU145 cells; 33 ng/ml HGF overnight,able to reduce HGF-induced
same,EGF-induced cell scattering,DU145 cells; 100 ng/ml EGF overnight,not EGF-induced
same,EGFR activation,EGFR,do not significantly reduce
same,reduction of c-Met activation,"c-Met [2]; 8 μM compound, DU145 cells, 33 ng/ml HGF 20 min, serum-free, Western blot densitometry",~90%
same,"pMet levels, compound given post HGF treatment","c-Met [2]; DU145, 33 ng/ml HGF 20 min, wash, then 4 μM DIDS 20 or 60 minutes",reduced pMet levels
same,reversibility of c-Met inhibition after wash,"c-Met [2]; DU145, 4 μM DIDS 20 min, one wash, recovery from 20 minutes up to 1 hour, then 33 ng/ml HGF",does not irreversibly bind c-Met
same,effective concentrations for reducing c-Met activation in 10% FBS,"c-Met [2]; DU145 cells, 33 ng/ml HGF 20 min, 10% FBS RPMI, compared with serum-free",slightly higher effective concentrations
same,c-Met inhibitory effective doses,c-Met [2]; multiple cancer cell lines (summary),low micromolar range
same,IC50,c-Met M1250T (M1268T),0.37 µM
same,pMet levels in H1993 cells,c-Met [3],much less significant effects
same,IGFR activation,IGFR,do not significantly reduce
